The subject of one data set is RSV A long virus strain. It is filed as cell-based. An outline of the steps: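 HEp-2 cells (30000/well) infected with 100 PFU virus premixed 1 h with compound (8 concentrations, duplicate); after 2 h adsorption, cultured 1 day at 37 °C under 0.8% CMC overlay with compound. Plaques immunostained (RSV antibody, TrueBlue) and counted; IC50 and CC50 by non-linear fitting of % inhibition versus virus and cell controls.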

A short description of data set [1]: Cytotoxicity test in HEp-2 cells (CCK8 cell viability). Type of data set: cell-based. The note with it: human. An outline of the steps:
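HEp-2 cells seeded at 30,000/well, cultured overnight at 37° C./5% CO2, then exposed to diluted compound for 1 day in 0.5% DMSO. Viability read by CCK8, normalised to untreated-cell and medium-only controls; CC50 from four-parameter variable-slope fit.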

[2] abbreviates: RSV A long virus strain, HEp-2 cells, plaque reduction, 1 day, read-out: IC50.
Setting [3] is: HEp-2 cells, CCK8, 1 day, read-out: CC50.

Read-outs that look alike come from different tables or passages of the source. Where a SMILES comes first, the peptide text is derived from it. The star is where a group is joined. X1 = CC(C)CCCC(C)C1CCC2C3CC=C4CC(OC(=O)CCC(=O)*)CCC4(C)C3CCC12C

For the molecule `CC[C@H](C)[C@H](NC(=O)[C@H](CCCNC(=N)N)NC(=O)[C@H](CCCNC(=N)N)NC(=O)[C@H](CCCNC(=N)N)NC(=O)[C@H](CC(N)=O)NC(=O)[C@@H](NC(=O)[C@H](CCC(=O)O)NC(=O)[C@H](Cc1ccccc1)NC(C)=O)C(C)C)C(=O)N[C@@H](CCC(=O)O)C(=O)N[C@@H](CCC(N)=O)C(=O)N[C@@H](CO)C(=O)N[C@@H](CC(C)C)C(=O)N[C@@H](CCC(=O)O)C(=O)N[C@@H](CCCCN)C(=O)N[C@@H](CO)C(=O)N[C@@H](CC(C)C)C(=O)N[C@@H](CCC(=O)O)C(=O)N[C@@H](CO)C(=O)N[C@@H](CC(C)C)C(=O)N[C@@H](CCC(=O)O)C(=O)N[C@@H](CCC(=O)O)C(=O)N[C@@H](CCC(=O)O)C(=O)N[C@@H](CCC(=O)O)C(=O)N[C@@H](Cc1c[nH]cn1)C(=O)N[C@@H](CO)C(=O)N[C@@H](CC(=O)O)C(=O)N[C@@H](CCCCN)C(=O)N[C@@H](CCCCN)C(=O)N[C@@H](CC(C)C)C(=O)N[C@@H](Cc1c[nH]cn1)C(=O)N[C@@H](CC(N)=O)C(=O)N[C@@H](CCC(=O)O)C(=O)N[C@@H](CC(C)C)C(=O)N[C@@H](Cc1c[nH]cn1)C(N)=O` [Compound 46] (Ac-FEVNRRRIEQSLEKSLESLEEEEHSDKKLHNELH-NH2), the IC50 in the data set on RSV A long virus strain (setting [2]) is more than 8 µM. Besides, in data set [1] (setting [3]), the CC50 at 1 day was more than 8 µM.
As to `CC[C@H](C)[C@H](NC(=O)[C@H](Cc1ccccc1)NC(=O)[C@H](CCCCN)NC(=O)[C@H](CC(C)C)NC(=O)[C@H](CO)NC(=O)[C@H](CCC(N)=O)NC(=O)[C@H](CCC(=O)O)NC(=O)[C@@H](NC(=O)[C@H](CCCCN)NC(=O)[C@H](CCCCN)NC(=O)[C@H](CC(N)=O)NC(=O)[C@@H](NC(=O)[C@H](CCC(N)=O)NC(=O)[C@H](CCC(=O)O)NC(=O)[C@H](CC(C)C)NC(=O)[C@H](CO)NC(C)=O)C(C)C)[C@@H](C)CC)C(=O)N[C@@H](CCC(=O)O)C(=O)N[C@@H](CCCCN)C(=O)N[C@@H](CO)C(=O)N[C@@H](CC(=O)O)C(=O)N[C@@H](CCCCN)C(=O)N[C@@H](CC(C)C)C(=O)N[C@@H](CC(C)C)C(=O)N[C@@H](CCC(=O)O)C(=O)N[C@@H](CC(N)=O)C(=O)NCC(=O)N[C@@H](CO)C(=O)NCC(=O)N[C@@H](CO)C(=O)NCC(=O)N[C@@H](CCCCNC(=O)CCC(=O)OC1CCC2(C)C(=CCC3C2CCC2(C)C(C(C)CCCC(C)C)CCC32)C1)C(N)=O` (stereo partly shown) [Positive polypeptide 1, reference compound] (Ac-SLEQVNKKIEQSLKFIEKSDKLLENGSGSGK(X1)-NH2), the IC50 in the data set with RSV A long virus strain (setting [2]) came out at 0.15 µM. In addition, in data set [1] (setting [3]), the cytotoxic concentration (CC50) at 1 day amounted to 3.69 µM.
For `CC[C@H](C)[C@H](NC(C)=O)C(=O)N[C@@H](CCC(=O)O)C(=O)N[C@@H](CCC(N)=O)C(=O)N[C@H](C(=O)N[C@@H](CC(N)=O)C(=O)N[C@@H](CCCCN)C(=O)N[C@@H](CCCCN)C(=O)N[C@H](C(=O)N[C@@H](CCC(=O)O)C(=O)N[C@@H](CCC(N)=O)C(=O)N[C@@H](CO)C(=O)N[C@@H](CC(C)C)C(=O)N[C@@H](CCCCN)C(=O)N[C@@H](Cc1ccccc1)C(=O)N[C@H](C(=O)N[C@@H](CCC(=O)O)C(=O)N[C@@H](CCCCN)C(=O)N[C@@H](CO)C(=O)N[C@@H](CC(=O)O)C(=O)N[C@@H](CCCCN)C(=O)N[C@@H](CC(C)C)C(=O)N[C@@H](CC(C)C)C(=O)N[C@@H](CCC(=O)O)C(=O)N[C@@H](CC(N)=O)C(=O)N[C@H](C(=O)N[C@@H](CC(N)=O)C(=O)N[C@@H](CCCCN)C(=O)NCC(=O)N[C@@H](CCCCN)C(N)=O)C(C)C)[C@@H](C)CC)[C@@H](C)CC)C(C)C` [Positive polypeptide 2, reference compound] (Ac-IEQVNKKIEQSLKFIEKSDKLLENVNKGK-NH2) the same measures were more than 0.3 µM and more than 10 µM.
Take `CC[C@H](C)[C@H](NC(C)=O)C(=O)N[C@@H](CCC(=O)O)C(=O)N[C@@H](CCC(=O)O)C(=O)N[C@H](C(=O)N[C@@H](CC(N)=O)C(=O)N[C@@H](CCCCN)C(=O)N[C@@H](CCCCN)C(=O)N[C@H](C(=O)N[C@@H](CCC(=O)O)C(=O)N[C@@H](CCC(=O)O)C(=O)N[C@@H](CO)C(=O)N[C@@H](CC(C)C)C(=O)N[C@@H](CCCCN)C(=O)N[C@@H](CCCCN)C(=O)N[C@H](C(=O)N[C@@H](CCC(=O)O)C(=O)N[C@@H](CCC(=O)O)C(=O)N[C@@H](CO)C(=O)N[C@@H](CC(=O)O)C(=O)N[C@@H](CCCCN)C(=O)N[C@@H](CCCCN)C(=O)N[C@@H](CC(C)C)C(=O)N[C@@H](CCC(=O)O)C(=O)N[C@@H](CCC(=O)O)C(=O)N[C@H](C(=O)N[C@@H](CC(N)=O)C(=O)N[C@@H](CCCCN)C(=O)N[C@@H](CCCCN)C(=O)N[C@@H](CCCCN)C(=O)N[C@@H](CCC(=O)O)C(=O)N[C@@H](C)C(=O)N[C@@H](C)C(=O)N[C@@H](C)C(=O)N[C@@H](CCCCN)C(=O)N[C@@H](CCCCNC(=O)CCC(=O)OC1CCC2(C)C(=CCC3C2CCC2(C)C(C(C)CCCC(C)C)CCC32)C1)C(N)=O)C(C)C)[C@@H](C)CC)[C@@H](C)CC)C(C)C` (stereo partly shown) [Positive polypeptide 3, reference compound] (Ac-IEEVNKKIEESLKKIEESDKKLEEVNKKKEAAAKK(X1)-NH2): the half-maximal inhibitory concentration (IC50) with RSV A long virus strain (setting [2]) is more than 0.3 µM. The half-maximal cytotoxic concentration (CC50) at 1 day in data set [1] (setting [3]) was more than 10 µM.
Take `CC[C@H](C)[C@H](NC(C)=O)C(=O)N[C@@H](CCC(=O)O)C(=O)N[C@@H](CCC(N)=O)C(=O)N[C@H](C(=O)N[C@@H](CC(N)=O)C(=O)N[C@@H](CCCCN)C(=O)N[C@@H](CCCCN)C(=O)N[C@H](C(=O)N[C@@H](CCC(=O)O)C(=O)N[C@@H](CCC(N)=O)C(=O)N[C@@H](CO)C(=O)N[C@@H](CC(C)C)C(=O)N[C@@H](CCCCN)C(=O)N[C@@H](Cc1ccccc1)C(=O)N[C@H](C(=O)N[C@@H](CCC(=O)O)C(=O)N[C@@H](CCCCN)C(=O)N[C@@H](CO)C(=O)N[C@@H](CC(=O)O)C(=O)N[C@@H](CCCCN)C(=O)N[C@@H](CC(C)C)C(=O)N[C@@H](CC(C)C)C(=O)N[C@@H](CCC(=O)O)C(=O)N[C@@H](CC(N)=O)C(=O)N[C@H](C(=O)N[C@@H](CC(N)=O)C(=O)N[C@@H](CCCCN)C(=O)NCC(=O)N[C@@H](CCCCN)C(=O)N[C@@H](CS)C(=O)N[C@@H](CCC(=O)O)C(=O)N[C@@H](C)C(=O)N[C@@H](C)C(=O)N[C@@H](C)C(=O)N[C@@H](CCCCN)C(=O)N[C@@H](CCCCNC(=O)CCC(=O)OC1CCC2(C)C(=CCC3C2CCC2(C)C(C(C)CCCC(C)C)CCC32)C1)C(N)=O)C(C)C)[C@@H](C)CC)[C@@H](C)CC)C(C)C` (stereo partly shown) [Positive polypeptide 4, reference compound] (Ac-IEQVNKKIEQSLKFIEKSDKLLENVNKGKCEAAAKK(X1)-NH2): the IC50 in the data set on RSV A long virus strain (setting [2]) was determined as 0.19 µM. For the same molecule, the CC50 at 1 day in data set [1] (setting [3]) was 4.62 µM.
With `CC[C@H](C)[C@H](NC(=O)[C@H](Cc1ccccc1)NC(=O)[C@H](CCCCN)NC(=O)[C@H](CC(C)C)NC(=O)[C@H](CO)NC(=O)[C@H](CCC(N)=O)NC(=O)[C@H](CCC(=O)O)NC(=O)[C@@H](NC(=O)[C@H](CCCCN)NC(=O)[C@H](CCCCN)NC(=O)[C@H](CC(N)=O)NC(=O)[C@@H](NC(=O)[C@H](CCC(N)=O)NC(=O)[C@H](CCC(=O)O)NC(=O)[C@H](CC(C)C)NC(C)=O)C(C)C)[C@@H](C)CC)C(=O)N[C@@H](CCC(=O)O)C(=O)N[C@@H](CCCCN)C(=O)N[C@@H](CO)C(=O)N[C@@H](CC(=O)O)C(=O)N[C@@H](CCCCN)C(=O)N[C@@H](CC(C)C)C(=O)N[C@@H](CC(C)C)C(=O)N[C@@H](CCC(=O)O)C(=O)N[C@@H](CC(N)=O)C(=O)N[C@H](C(=O)N[C@@H](CC(N)=O)C(=O)N[C@@H](CCCCN)C(=O)NCC(=O)N[C@@H](CCCCN)C(=O)N[C@@H](CS)C(=O)N[C@@H](CCC(=O)O)C(=O)N[C@@H](C)C(=O)N[C@@H](C)C(=O)N[C@@H](C)C(=O)N[C@@H](CCCCN)C(=O)N[C@@H](CCCCNC(=O)CCC(=O)OC1CCC2(C)C(=CCC3C2CCC2(C)C(C(C)CCCC(C)C)CCC32)C1)C(N)=O)C(C)C` (stereo partly shown) [Positive polypeptide 5, reference compound] (Ac-LEQVNKKIEQSLKFIEKSDKLLENVNKGKCEAAAKK(X1)-NH2), the IC50 in the data set on RSV A long virus strain (setting [2]) is more than 0.3 µM. In addition, the half-maximal cytotoxic concentration (CC50) at 1 day in data set [1] (setting [3]) was 3.72 µM.
For `CC[C@H](C)[C@H](NC(=O)[C@H](C)NC(=O)[C@H](C)NC(=O)[C@H](CC(C)C)NC(=O)[C@H](CO)NC(=O)[C@H](CCC(N)=O)NC(=O)[C@H](CC(N)=O)NC(=O)[C@@H](NC(=O)[C@H](CCCCN)NC(=O)[C@H](CCC(=O)O)NC(=O)[C@H](CC(N)=O)NC(=O)[C@@H](NC(=O)[C@H](CCC(N)=O)NC(=O)[C@H](CO)NC(=O)[C@@H](NC(=O)[C@H](CO)NC(=O)[C@H](C)NC(=O)[C@H](CC(=O)O)NC(=O)[C@H](Cc1ccccc1)NC(=O)[C@H](CCC(=O)O)NC(=O)[C@H](CC(=O)O)NC(=O)[C@H](CO)NC(=O)[C@@H]1CCCN1C(=O)[C@H](Cc1ccccc1)NC(=O)[C@@H](NC(C)=O)C(C)C)[C@@H](C)CC)C(C)C)[C@@H](C)CC)C(=O)N[C@@H](CCCNC(=N)N)C(=O)N[C@@H](CCCCN)C(=O)N[C@@H](CO)C(=O)N[C@@H](CC(=O)O)C(=O)N[C@@H](CCC(=O)O)C(=O)N[C@@H](CC(C)C)C(=O)N[C@@H](CC(C)C)C(=O)N[C@@H](Cc1c[nH]cn1)C(=O)N[C@@H](CC(N)=O)C(=O)N[C@H](C(N)=O)C(C)C` [Positive polypeptide 6, reference compound] (Ac-VFPSDEFDASISQVNEKINQSLAAIRKSDELLHNV-NH2) the same measures were more than 0.3 µM and more than 10 µM.
For the molecule “Ac-FDASISQVNEKINQSLAFIRKSDELLHNVNAGKSTTEAAAKK(X1)-NH2 [Positive polypeptide 7, reference compound]”, the IC50 with RSV A long virus strain (setting [2]) was more than 0.3 µM. Moreover, the half-maximal cytotoxic concentration (CC50) at 1 day in data set [1] (setting [3]) is more than 10 µM.
As for “Ac-FDFDEFDASISQVNEKINESLAFIRLAFIRKSDELLEAAAKK-NH2 [Compound 24]”, in the data set on RSV A long virus strain (setting [2]), the IC50 stood at 2.65 µM. In data set [1] (setting [3]), the CC50 at 1 day is more than 8 µM.
“Ac-SLEQVNKINEKINKISQSLKKIEESDKKSDEVNAGLEAAAKK-NH2 [Compound 48]” gave a half-maximal inhibitory concentration (IC50) in the data set on RSV A long virus strain of more than 8 µM. The molecule further came in with a cytotoxic concentration (CC50) at 1 day in data set [1] of more than 8 µM.
As for “Ac-SLEQVNKINKKIDKIEESLKKIEESDKKSLEVNKKLEAAAKK-NH2 [Compound 47]”, the concentration for half-maximal inhibition (IC50) with RSV A long virus strain is more than 8 µM. In data set [1], this molecule showed a CC50 at 1 day of more than 8 µM.

For the origin of these results see patent US20260250325A1, “Antiviral Polypeptide Membrane Fusion Inhibitor, and Preparation Method and Application Thereof” (priority 2025, published 2026).
